“And” between values parts separate entries of the source, which are not always exact repeats. Identical values can stand only once.
System: 777334-354-R2-J4-PDC tumor spheroids with HUVEC/MSC, viability
Assay: Anticancer human tumor 777334-354-R2-J4-PDC patient-derived pancreatic adenocarcinoma cell line growth inhibition [GQUAD]
Settings: for viability, T/C: stronger effect = lower value
Description: DNA G-quadruplex Stabilizer Agents in Combinations in Complex Spheroids
A high-throughput screen of multi-cell type tumor spheroids was designed to identify active combinations of DNA G-quadruplex stabilizer agents and targeted small molecules. Complex spheroids include a stromal component modeled by human endothelial cells (HUVEC) and fibroblasts modeled by human mesenchymal stem cells (MSCs). The concentration ranges selected for each drug and investigational agent were based upon clinically achievable concentrations if the clinical Cmax of the agent was known.
Compounds. The drugs and investigational agents: pidnarulex (CX-5461; NSC782164), APTO-253 (NSC789042), BRACO-19 (NSC847499), peposertib (NSC802822), ceralasertib (NSC780249), elimusertib (NSC800525), camonsertib (NSC841442), AZD-1390 (NSC803789), olaparib (NSC753686), talazoparib (NSC767125), ART-558 (NSC835418), sotorasib (NSC818433), MRTX-1133 (NSC836407), SN-38 (NSC673596), topotecan (NSC609699), etoposide (NSC141540), doxorubicin (NSC123127), gemcitabine (NSC613327), 5-fluorouracil (NSC19893), paclitaxel (NSC125973), vemurafenib (NSC761431), panobinostat (NSC761190), R-306465 (JNJ-16241199; NSC773264), adavosertib (NSC754352), TP-3654 (NSC805149), carboplatin (NSC241240), KSQ-4279 (NSC840948), and staurosporine (NSC755774) were obtained from the National Cancer Institute (NCI) Developmental Therapeutics Program Chemical Repository (34). The FDA-approved anticancer drug set is available from the NCI Developmental Therapeutics Program. […] The stock solutions were prepared in dimethyl sulfoxide (DMSO, Sigma-Aldrich, St. Louis, MO, cat. D2650) at 800-fold the tested concentration and stored at -70 degrees C prior to their use. All drugs and investigational agents were tested over a range starting from a high concentration at or near the clinical Cmax and decreasing in half-log increments. If the clinical Cmax for an agent had not been determined, the highest concentration tested was 10 microM.
2.3 Cell Culture. All cells were maintained in an incubator at 37 degrees C and 5% CO2 with 95% humidity. The PDC lines were cultured according to standard operating procedures established by the NCI PDMR. All PDCs were thawed and cultured in Matrigel-coated flasks prepared with a working solution of 1X Ham's F-12 nutrient mix, without supplementation (Invitrogen, cat. 11765054), 100 U/mL penicillin-streptomycin (Invitrogen, cat. 15140122), and 2.5% Matrigel (Corning Inc., cat. 354248) for the first three passages. The 857933-349-R-J2-PDC line was cultured in 6C/Colon 1B media, which includes advanced DMEM/F-12 (Thermo Fisher Scientific, cat. 12634028), 10 mM HEPES (Thermo Fisher Scientific, cat. 15630080), 1X GlutaMAX supplement (Thermo Fisher Scientific, cat. 35050061), 0.1 mg/mL primocin (InvivoGen, cat. ant-pm-2), 10% defined fetal bovine serum, heat inactivated (HyClone Laboratories Inc., cat. SH30070.03HI), 50% L-WRN conditioned media (ATCC, cat. CRL-3276), 1.25 mM N-Acetyl-L-cysteine (Sigma-Aldrich, cat. A9165), 10 mM nicotinamide (Sigma-Aldrich, cat. N0636), 1X B-27 supplement (Thermo Fisher Scientific, cat. 17504044), 1X N-2 supplement (Thermo Fisher Scientific, cat. 17502048), 10 microM Y-27632 dihydrochloride (Tocris Bioscience, cat. 1254), and 50 ng/mL human EGF recombinant protein (Thermo Fisher Scientific, cat. PHG0311). The 485176-168-R4-J1-PDC line was cultured in Panc media, which includes all 6C/Colon 1B media components plus 100 ng/mL human FGF-10 (Thermo Fisher Scientific, cat. 100-26), 500 nM SB-431542 (Selleckchem, cat. S1067), and gastrin (Tocris, cat. 3006).
[…]

[1] = curve of first compound, second compound 0.0316 µM
[2] = curve of first compound, second compound 0.1 µM
[3] = curve of first compound, second compound 0.316 µM
[4] = curve of first compound, second compound 1 µM
[5] = curve of first compound, second compound 3.16 µM
[6] = curve of first compound, second compound 10 µM
[7] = second compound 0.0316 µM, first compound 0.0316 µM
[8] = second compound 0.0316 µM, first compound 0.1 µM
[9] = second compound 0.0316 µM, first compound 0.316 µM
[10] = second compound 0.0316 µM, first compound 1 µM
[11] = second compound 0.0316 µM, first compound 3.16 µM
[12] = second compound 0.0316 µM, first compound 10 µM
[13] = second compound 0.1 µM, first compound 0.0316 µM
[14] = second compound 0.1 µM, first compound 0.1 µM
[15] = second compound 0.1 µM, first compound 0.316 µM
[16] = second compound 0.1 µM, first compound 1 µM
[17] = second compound 0.1 µM, first compound 3.16 µM
[18] = second compound 0.1 µM, first compound 10 µM
[19] = second compound 0.316 µM, first compound 0.0316 µM
[20] = second compound 0.316 µM, first compound 0.1 µM
[21] = second compound 0.316 µM, first compound 0.316 µM
[22] = second compound 0.316 µM, first compound 1 µM
[23] = second compound 0.316 µM, first compound 3.16 µM
[24] = second compound 0.316 µM, first compound 10 µM
[25] = second compound 1 µM, first compound 0.0316 µM
[26] = second compound 1 µM, first compound 0.1 µM
[27] = second compound 1 µM, first compound 0.316 µM
[28] = second compound 1 µM, first compound 1 µM
[29] = second compound 1 µM, first compound 3.16 µM
[30] = second compound 1 µM, first compound 10 µM
[31] = second compound 3.16 µM, first compound 0.0316 µM
[32] = second compound 3.16 µM, first compound 0.1 µM
[33] = second compound 3.16 µM, first compound 0.316 µM
[34] = second compound 3.16 µM, first compound 1 µM
[35] = second compound 3.16 µM, first compound 3.16 µM
[36] = second compound 3.16 µM, first compound 10 µM
[37] = second compound 10 µM, first compound 0.0316 µM
[38] = second compound 10 µM, first compound 0.1 µM
[39] = second compound 10 µM, first compound 0.316 µM
[40] = second compound 10 µM, first compound 1 µM
[41] = second compound 10 µM, first compound 3.16 µM
[42] = second compound 10 µM, first compound 10 µM
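Also: spheroids exposed to compounds for 7 days before readout.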

SMILES: Nc1ccn(C2OC(CO)C(O)C2(F)F)c(=O)n1 (stereo not given) + CN(C)c1ccc(Nc2c3ccc(NC(=O)CCN4CCCC4)cc3nc3cc(NC(=O)CCN4CCCC4)ccc23)cc1
- IC50 [1]: 0.557 µM
- IC50 [2]: 0.402 µM
- IC50 [3]: 0.326 µM
- IC50 [4]: 0.171 µM
- IC50 [5]: 0.15 µM
- IC50 [6]: 0.0779 µM
- viability, T/C [7]: 80.7%
- viability, T/C [8]: 67.8%
- viability, T/C [9]: 54.4%
- viability, T/C [10]: 44.3%
- viability, T/C [11]: 37.5%
- viability, T/C [12]: 27.3%
- viability, T/C [13]: 80.5%
- viability, T/C [14]: 71.5%
- viability, T/C [15]: 51.5%
- viability, T/C [16]: 39.1%
- viability, T/C [17]: 32.6%
- viability, T/C [18]: 27.4%
- viability, T/C [19]: 68.5%
- viability, T/C [20]: 65.8%
- viability, T/C [21]: 45.4%
- viability, T/C [22]: 40.5%
- viability, T/C [23]: 33.2%
- viability, T/C [24]: 23.4%
- viability, T/C [25]: 76.2%
- viability, T/C [26]: 55.3%
- viability, T/C [27]: 42.2%
- viability, T/C [28]: 34.4%
- viability, T/C [29]: 30.1%
- viability, T/C [30]: 22.9%
- viability, T/C [31]: 67.4%
- viability, T/C [32]: 51.8%
- viability, T/C [33]: 43.5%
- viability, T/C [34]: 33.7%
- viability, T/C [35]: 32.4%
- viability, T/C [36]: 22.2%
- viability, T/C [37]: 59.5%
- viability, T/C [38]: 49.5%
- viability, T/C [39]: 33.9%
- viability, T/C [40]: 30.5%
- viability, T/C [41]: 30.3%
- viability, T/C [42]: 18.5%

SMILES: C=CCn1c(=O)c2cnc(Nc3ccc(N4CCN(C)CC4)cc3)nc2n1-c1cccc(C(C)(C)O)n1
- viability, T/C (compound 0.0316 µM): 93.8% and 101% and 99.7%
- viability, T/C (compound 0.1 µM): 85.8% and 102% and 88%
- viability, T/C (compound 0.316 µM): 81.1% and 84.7% and 74.9%
- viability, T/C (compound 1 µM): 43.1% and 45.4% and 41.5%
- viability, T/C (compound 3.16 µM): 35.6% and 37.4% and 39%
- viability, T/C (compound 10 µM): 30.4% and 38.4% and 35.2%
- IC50 (curve of compound): 0.821 µM and 0.869 µM and 0.787 µM

SMILES: CC(=O)O[C@H]1C(=O)[C@@]2(C)[C@H]([C@H](OC(=O)c3ccccc3)[C@]3(O)C[C@H](OC(=O)[C@H](O)[C@@H](NC(=O)c4ccccc4)c4ccccc4)C(C)=C1C3(C)C)[C@]1(OC(C)=O)CO[C@@H]1C[C@@H]2O + CN(C)c1ccc(Nc2c3ccc(NC(=O)CCN4CCCC4)cc3nc3cc(NC(=O)CCN4CCCC4)ccc23)cc1
- IC50 [1]: 0.222 µM
- IC50 [2]: 0.22 µM
- IC50 [3]: 0.19 µM
- IC50 [4]: 0.0898 µM
- IC50 [5]: 0.0933 µM
- IC50 [6]: 0.207 µM
- viability, T/C [7]: 76.8%
- viability, T/C [8]: 57.2%
- viability, T/C [9]: 48.6%
- viability, T/C [10]: 39.2%
- viability, T/C [11]: 43.2%
- viability, T/C [12]: 46.2%
- viability, T/C [13]: 72.7%
- viability, T/C [14]: 58.1%
- viability, T/C [15]: 46.5%
- viability, T/C [16]: 38.9%
- viability, T/C [17]: 49.7%
- viability, T/C [18]: 48.5%
- viability, T/C [19]: 73.9%
- viability, T/C [20]: 54.4%
- viability, T/C [21]: 47%
- viability, T/C [22]: 41.2%
- viability, T/C [23]: 49.6%
- viability, T/C [24]: 42%
- viability, T/C [25]: 59.2%
- viability, T/C [26]: 50.6%
- viability, T/C [27]: 40.5%
- viability, T/C [28]: 39.3%
- viability, T/C [29]: 39%
- viability, T/C [30]: 35.1%
- viability, T/C [31]: 65.8%
- viability, T/C [32]: 51%
- viability, T/C [33]: 38.4%
- viability, T/C [34]: 45.6%
- viability, T/C [35]: 44.2%
- viability, T/C [36]: 39.4%
- viability, T/C [37]: 70%
- viability, T/C [38]: 51.8%
- viability, T/C [39]: 51.2%
- viability, T/C [40]: 46.5%
- viability, T/C [41]: 41.8%
- viability, T/C [42]: 46.3%

SMILES: CC(=O)O[C@H]1C(=O)[C@@]2(C)[C@H]([C@H](OC(=O)c3ccccc3)[C@]3(O)C[C@H](OC(=O)[C@H](O)[C@@H](NC(=O)c4ccccc4)c4ccccc4)C(C)=C1C3(C)C)[C@]1(OC(C)=O)CO[C@@H]1C[C@@H]2O
- viability, T/C (compound 0.0316 µM): 78.3% and 74% and 80.3%
- viability, T/C (compound 0.1 µM): 61.3% and 56% and 57.1%
- viability, T/C (compound 0.316 µM): 47.8% and 50% and 43.4%
- viability, T/C (compound 1 µM): 46% and 46.2% and 44.1%
- viability, T/C (compound 3.16 µM): 45.2% and 46.1% and 39.9%
- viability, T/C (compound 10 µM): 47.9% and 45% and 51.3%
- IC50 (curve of compound): 0.26 µM and 0.276 µM and 0.193 µM

SMILES: CC(C)(O)C1CCC(Nc2ccc3ncc(-c4cccc(C(F)(F)F)c4)n3n2)CC1 (stereo not given)
- viability, T/C (compound 0.0316 µM): 84.4% and 103% and 93.7%
- viability, T/C (compound 0.1 µM): 80.4% and 88.1% and 93.2%
- viability, T/C (compound 0.316 µM): 82.7% and 83.2% and 94.2%
- viability, T/C (compound 1 µM): 62.6% and 55.1% and 44.4%
- viability, T/C (compound 3.16 µM): 32.1% and 31.5% and 31.2%
- viability, T/C (compound 10 µM): 34.5% and 39.3% and 36.5%
- IC50 (curve of compound): 1.64 µM and 1.29 µM and 0.876 µM

Reference: PubChem BioAssay AID2060499 (Molecular Pharmacology Branch, DTP, NCI, 2025)
